One series relates to Jurkat cells. Kind of series: Cytotoxicity against Jurkat cells (CellTiter Blue). The class given is cell-based, human. The procedure: (§1) The cytotoxicities of selected peptides against human T-lymphocytes, in particular Jurkat cells, was determined by growing 100 uL Jurkat cells in RPMI (approx. 5×10^5 cells/ml density) overnight at 37° C. under 5% CO2 atmosphere, in microtiter plate wells, in the presence and absence of peptides. Control reactions either lacked peptide (negative cytotoxicity control), or contained a buffer to completely lyse Jurkat cells (positive cytotoxicity control). The viabilities of cells were then determined by addition of 20 uL CellTiter Blue dye (Promega) to each well, and incubation of cells for a further 3 hrs at 37° C. Fluorescence values were measured for 1 sec at 540 nm/615 nm, and expressed relative to fluorescence values for negative and positive cytotoxicity control samples. Comparison with a fully lysed control allowed the calculation of a percentage killing for each peptide concentration. The MCC10 value was calculated as the minimum peptide concentration required to induce 10% cytotoxicity.

Series [1] can be described thus: Cytotoxicity against Jurkat cells (CellTiter Blue). The class given is cell-based, human. The conditions noted are these: human. The protocol:
as §1
A general note: Resazurin is reduced to fluorescent resorufin, in cell work by metabolically active cells.

Another series has as its system A. baumannii. The class given is cell-based. The method in brief: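 Laboratory strains and 50 clinical isolates of A. baumannii were tested by CLSI broth microdilution, with serially diluted peptide (0.1-64 μg) and about 1×10^5 C.F.U. per well, incubated aerobically overnight at 35±2° C. MIC was read visually. MBC came from subculturing clear wells, as ≥99.9% inoculum reduction.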

The test system of the next series is human RBC. Briefly: Hemolysis of RBC. The series is classed as cell-based. The procedure:
Varying amounts of peptide were incubated with the washed RBC for one hour at room temperature. Intact cells were pelleted by gentle centrifugation, and hemolysis of each sample was determined by absorption measurement at 450 nm. A positive control sample consisted of RBC lysed by the addition of 0.1% Triton, for which hemolysis was also determined by absorption measurement at 450 nm. Percentages of lysed RBC incubated with peptide were then calculated by the ratio of absorbances at 450 nm for the sample relative to the absorbance at 450 nm of the positive control sample. The MHC10 value was calculated as the minimum peptide concentration to induce 10% cell lysis.

Series [2] concerns Escherichia coli strain BL21. The class given is cell-based. The following applies: summary of Table 6. The procedure: Synthetic peptides were tested for their ability to inhibit bacterial growth in liquid culture. […] 19606, Acinetobacter spp. ATCC 17903, Acinetobacter spp. ATCC 19004, Escherichia coli strain BL21, S. aureus, S. typhimurium strain AroA, P. aeruginosa or P. pneumotropica. After 5-6 hours of shaking at 37° C., growth was measured as absorbance at 595 nm. As a control, cultures were grown in the presence of 0.1% acetonitrile (i.e., the concentration present in 10 μM peptide).

These results are taken from patent publication US20110262508A1, “ANTIMICROBIAL COMPOSITIONS, FORMULATIONS AND USES THEREOF” (priority 2007, published 2011).

Peptide text beside a SMILES is read from it. * marks the point of attachment. Biotin = O=C1N[C@H]2[C@H](CS[C@H]2CCCCC(=O)*)N1

For `CC[C@H](C)[C@H](NC(=O)[C@H](CCC(N)=O)NC(=O)[C@H](CCCNC(=N)N)NC(=O)[C@@H](NC(=O)[C@@H](NC(=O)[C@@H]1CCCN1C(=O)[C@@H]1CCCN1C(=O)[C@H](CCSC)NC(=O)[C@H](CCCNC(=N)N)NC(=O)[C@H](CC(N)=O)NC(=O)[C@@H](NC(=O)CNC(=O)[C@H](Cc1c[nH]c2ccccc12)NC(=O)CCCC[C@@H]1SC[C@@H]2NC(=O)N[C@@H]21)C(C)C)C(C)C)C(C)C)C(=O)N[C@@H](CC(C)C)C(=O)N[C@@H](CCCNC(=N)N)C(=O)N[C@@H](CO)C(=O)N[C@@H](CCC(=O)O)C(=O)N[C@@H](Cc1c[nH]c2ccccc12)C(=O)N[C@@H](CCCNC(=N)N)C(=O)N[C@@H](CC(N)=O)C(=O)N[C@@H](Cc1c[nH]c2ccccc12)C(=O)N[C@@H](CCCNC(=N)N)C(=O)N[C@@H](CCCCN)C(=O)O` [Ac436] (Biotin-WGVNRMPPVVRQILRSEWRNWRK-OH), in the series with Jurkat cells, the MCC10 is 25 µM. In series [1], this molecule had a cytotoxicity at 12.5 μM of 6%, a cytotoxicity at 25 μM of 10% and a cytotoxicity at 50 μM of 32%. Besides, the “MIC (μM) for non-amidated Peptide” value against A. baumannii was determined as 10 µM. In the series with human RBC, this molecule displayed an MHC10 of 75 µM.
Turning to tachyplesin-1 [reference compound], in series [2], the “inhibition of growth of E. coli” value is given as “inhibited growth of E. coli significantly”.
With `CC(C)C[C@H](NC(=O)[C@H](Cc1ccccc1)NC(=O)CNC(=O)[C@H](CO)NC(=O)[C@@H]1CCCN1C(=O)[C@H](Cc1c[nH]c2ccccc12)NC(=O)[C@@H](NC(=O)[C@@H]1CCCN1C(=O)[C@H](CCCNC(=N)N)NC(=O)[C@@H](NC(=O)[C@H](C)NC(=O)[C@H](CS)NC(=O)[C@H](CCCNC(=N)N)NC(=O)[C@H](CO)NC(=O)[C@H](CO)NC(=O)[C@H](C)NC(=O)[C@H](C)NC(=O)[C@H](CCCNC(=N)N)NC(=O)[C@H](CO)NC(=O)[C@H](CO)NC(=O)[C@H](Cc1c[nH]cn1)NC(=O)[C@@H]1CCCN1C(=O)CCCC[C@@H]1SC[C@@H]2NC(=O)N[C@@H]21)C(C)C)C(C)C)C(=O)N[C@@H](CCCNC(=N)N)C(=O)O` [Ac327] (Biotin-PHSSRAASSRCAVRPVWPSGFLR-OH), the MCC10 with Jurkat cells turned out to be 8 µM. In series [1], this molecule returned a cytotoxicity at 12.5 μM of 20%, a cytotoxicity at 25 μM of 31% and a cytotoxicity at 50 μM of 1%. Besides, the “MIC (μM) for non-amidated Peptide” value in the series with A. baumannii turned out to be 20 µM. In the series on human RBC, this molecule had an MHC10 of 30 µM.
In the series with Jurkat cells, `CC(C)C[C@H](NC(=O)[C@H](Cc1ccccc1)NC(=O)CNC(=O)[C@H](CO)NC(=O)[C@@H]1CCCN1C(=O)[C@H](Cc1c[nH]c2ccccc12)NC(=O)[C@@H](NC(=O)[C@@H]1CCCN1C(=O)[C@H](CCCNC(=N)N)NC(=O)[C@@H](NC(=O)[C@H](C)NC(=O)[C@H](CS)NC(=O)[C@H](CCCNC(=N)N)NC(=O)[C@H](CO)NC(=O)[C@H](CO)NC(=O)CCCC[C@@H]1SC[C@@H]2NC(=O)N[C@@H]21)C(C)C)C(C)C)C(=O)N[C@@H](CCCNC(=N)N)C(=O)N[C@@H](CCCNC(=N)N)C(=O)N[C@@H](CC(C)C)C(=O)N[C@@H](CO)C(=O)N[C@@H](CC(=O)O)C(=O)N[C@@H](CCCNC(=N)N)C(=O)N[C@@H](CS)C(=O)N[C@@H](CS)C(=O)O` [Ac328] (Biotin-SSRCAVRPVWPSGFLRRLSDRCC-OH; N-terminus and C-terminus assumed) had an MCC10 of 20 µM. In series [1], the cytotoxicity at 12.5 μM was 1%, the cytotoxicity at 25 μM was 17% and the cytotoxicity at 50 μM was 32%. Moreover, in the series on A. baumannii, the “MIC (μM) for non-amidated Peptide” value was found to be 12.5 µM. The same molecule registered an MHC10 with human RBC of 20 µM.
With `CC[C@H](C)[C@H](NC(=O)[C@H](Cc1c[nH]c2ccccc12)NC(=O)[C@H](CCCNC(=N)N)NC(=O)[C@H](CO)NC(=O)[C@H](CCCNC(=N)N)NC(=O)[C@H](CCCNC(=N)N)NC(=O)[C@H](CO)NC(=O)[C@H](CCCNC(=N)N)NC(=O)[C@H](CCCNC(=N)N)NC(=O)[C@H](Cc1ccc(O)cc1)NC(=O)CNC(=O)CCCC[C@@H]1SC[C@@H]2NC(=O)N[C@@H]21)C(=O)N[C@@H](CS)C(=O)N[C@@H](CO)C(=O)N[C@@H](CCSC)C(=O)N[C@@H](C)C(=O)N[C@@H](CCCNC(=N)N)C(=O)N[C@@H](CCCNC(=N)N)C(=O)N[C@@H](CO)C(=O)N[C@@H](CCCNC(=N)N)C(=O)N[C@@H](CCCNC(=N)N)C(=O)N[C@@H](CCCNC(=N)N)C(=O)N[C@@H](CCCNC(=N)N)C(=O)N1CCC[C@H]1C(=O)O` [Ac389] (Biotin-GYRRSRRSRWICSMARRSRRRRP-OH), the MCC10 in the series with Jurkat cells is 15 µM. Besides, in series [1], the cytotoxicity at 12.5 μM is 0%, the cytotoxicity at 25 μM is 34% and the cytotoxicity at 50 μM was found to be 95%. The “MIC (μM) for non-amidated Peptide” value with A. baumannii is 12.5 µM. For the same molecule, the MHC10 with human RBC turned out to be 50 µM.
In turn, `CC[C@H](C)[C@H](NC(=O)[C@H](Cc1c[nH]cn1)NC(=O)[C@H](CO)NC(=O)[C@H](CC(C)C)NC(=O)[C@H](CS)NC(=O)[C@H](CS)NC(=O)[C@H](CCCNC(=N)N)NC(=O)[C@H](CCSC)NC(=O)[C@@H](NC(=O)[C@@H]1CCCN1C(=O)[C@H](CCC(N)=O)NC(=O)[C@H](Cc1c[nH]cn1)NC(=O)[C@H](CS)NC(=O)CCCC[C@@H]1SC[C@@H]2NC(=O)N[C@@H]21)[C@@H](C)O)C(=O)N[C@@H](CCCNC(=N)N)C(=O)N[C@@H](CCCNC(=N)N)C(=O)N[C@@H](CCCNC(=N)N)C(=O)N[C@@H](Cc1ccccc1)C(=O)N[C@@H](CCCNC(=N)N)C(=O)N[C@@H](CC(C)C)C(=O)O` [Ac431] (Biotin-CHQPTMRCCLSHIRRRFRL-OH; N-terminus and C-terminus assumed) returned an MCC10 in the series with Jurkat cells of 20 µM. In series [1], this molecule registered a cytotoxicity at 12.5 μM of 4%, a cytotoxicity at 25 μM of 15% and a cytotoxicity at 50 μM of 29%. Also, the “MIC (μM) for non-amidated Peptide” value with A. baumannii was 15 µM. Moreover, the MHC10 in the series on human RBC came out at 25 µM.
The molecule `CC(C)C[C@H](NC(=O)[C@H](CC(=O)O)NC(=O)[C@H](CO)NC(=O)CCCC[C@@H]1SC[C@@H]2NC(=O)N[C@@H]21)C(=O)NCC(=O)N[C@@H](CCCCN)C(=O)N[C@@H](CO)C(=O)NCC(=O)N[C@@H](C)C(=O)NCC(=O)N[C@@H](Cc1c[nH]c2ccccc12)C(=O)N[C@@H](CCCNC(=N)N)C(=O)N[C@@H](Cc1c[nH]c2ccccc12)C(=O)N[C@@H](CCCNC(=N)N)C(=O)N[C@@H](C)C(=O)N[C@@H](CS)C(=O)N[C@@H](CC(N)=O)C(=O)N[C@H](C(=O)N[C@@H](CC(C)C)C(=O)N[C@@H](CO)C(=O)N[C@@H](CCCCN)C(=O)N[C@@H](CS)C(=O)N[C@@H](CCCNC(=N)N)C(=O)NCC(=O)O)[C@@H](C)O` [Ac378] (Biotin-SDLGKSGAGWRWRACNTLSKCRG-OH; N-terminus and C-terminus assumed) registered an MCC10 in the series with Jurkat cells of 30 µM. Besides, in series [1], the cytotoxicity at 12.5 μM was 0%, the cytotoxicity at 25 μM is 0% and the cytotoxicity at 50 μM turned out to be 35%. In the series on A. baumannii, the “MIC (μM) for non-amidated Peptide” value is 12.5 µM. In the series on human RBC, the MHC10 worked out at 50 µM.
In turn, `CC(C)C[C@H](NC(=O)[C@H](CCC(N)=O)NC(=O)[C@H](CCCNC(=N)N)NC(=O)[C@H](Cc1ccccc1)NC(=O)[C@H](Cc1ccc(O)cc1)NC(=O)[C@H](CC(C)C)NC(=O)[C@H](Cc1c[nH]c2ccccc12)NC(=O)[C@H](Cc1ccccc1)NC(=O)[C@H](CCCNC(=N)N)NC(=O)[C@H](CCCNC(=N)N)NC(=O)[C@H](CO)NC(=O)[C@H](CC(=O)O)NC(=O)[C@H](CC(C)C)NC(=O)[C@H](Cc1c[nH]c2ccccc12)NC(=O)[C@H](Cc1ccccc1)NC(=O)[C@H](CC(=O)O)NC(=O)[C@H](CCCNC(=N)N)NC(=O)[C@H](CCCNC(=N)N)NC(=O)[C@H](C)NC(=O)[C@H](CCC(N)=O)NC(=O)[C@H](CO)NC(=O)[C@H](CCCNC(=N)N)NC(=O)CCCC[C@@H]1SC[C@@H]2NC(=O)N[C@@H]21)C(=O)N[C@@H](Cc1ccccc1)C(=O)O` [Ac474] (Biotin-RSQARRDFWLDSRRFWLYFRQLF-OH) had an MCC10 in the series on Jurkat cells of 10 µM. In series [1], this molecule yielded a cytotoxicity at 12.5 μM of 13%, a cytotoxicity at 25 μM of 20% and a cytotoxicity at 50 μM of 81%. Also, the “MIC (μM) for non-amidated Peptide” value with A. baumannii turned out to be 25 µM. Moreover, the MHC10 in the series on human RBC was 5 µM.
